In experiment [1] the target is Pim-1 (Homo sapiens (Human), UniProt P11309). Put plainly: Pim enzyme assay (HTRF, phosphorylation of biotinylated-BAD (S112) peptide), Pim-1. It is filed as biochemical. Put shortly:
(§1)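 Full-length human Pim-1 or Pim-2 with an N-terminal His6 tag, expressed in Sf9 or E. coli and purified as monomer. HTRF read-out: biotinylated BAD (S112) peptide phosphorylation detected with streptavidin-APC plus Eu-anti-phospho-BAD(S112) antibody, excitation 337 nm, emission 665 nm.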
(In general: In TR-FRET formats the signal depends on donor and acceptor labels being close together.)

Experiment [2] has as its target Pim-2 (Homo sapiens (Human), UniProt Q9P1W9). The experiment is described as follows: Pim enzyme assay (HTRF, phosphorylation of biotinylated-BAD (S112) peptide), Pim-2. It is filed as biochemical. Put shortly: as §1
Experiment [3] has as its system KMS-12-BM myeloma cell line. Put plainly: Pim cell assay: phospho-BAD (S112) and total BAD in KMS-12-BM cells. Type of experiment: cell-based. Particulars: 1 hour and 50 minutes incubation. The method in brief:
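KMS-12-BM myeloma cells, after overnight culture, got a 10-point compound dose series (0.3% DMSO) for 1 h 50 min at 37 °C. Lysates measured for phospho-BAD (S112) and total BAD by MSD immunoassay; % phosphoprotein = 2×phospho/(phospho+total)×100.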

Where [4] appears, read: full length recombinant Pim-1, biotinylated-BAD (S112) peptide, HTRF, read-out: Pim_1_IC50.
[5] abbreviates: full length recombinant Pim-2, biotinylated-BAD (S112) peptide, HTRF, read-out: Pim2_IC50.
Setting [6] is: Homo sapiens, KMS-12-BM, read-out: KMS12_Cell_IC50.
[7] abbreviates: tris(2,2,2-trifluoroacetate), read-out: KMS-12-BM IC50 IP.
Where [8] appears, read: full length recombinant Pim-1, biotinylated-BAD (S112) peptide, HTRF, 96-well, read-out: Pim-1 IC50 IP.
The mark [9] stands for this setting: full length recombinant Pim-2, biotinylated-BAD (S112) peptide, HTRF, 96-well, read-out: Pim-2 IC50 IP.
[10] abbreviates: Homo sapiens, KMS-12-BM, read-out: KMS-12-BM IC50 IP.

Read-outs that look alike come from different tables or passages of the source.

Chain of Pim-1 (P11309 whole entry): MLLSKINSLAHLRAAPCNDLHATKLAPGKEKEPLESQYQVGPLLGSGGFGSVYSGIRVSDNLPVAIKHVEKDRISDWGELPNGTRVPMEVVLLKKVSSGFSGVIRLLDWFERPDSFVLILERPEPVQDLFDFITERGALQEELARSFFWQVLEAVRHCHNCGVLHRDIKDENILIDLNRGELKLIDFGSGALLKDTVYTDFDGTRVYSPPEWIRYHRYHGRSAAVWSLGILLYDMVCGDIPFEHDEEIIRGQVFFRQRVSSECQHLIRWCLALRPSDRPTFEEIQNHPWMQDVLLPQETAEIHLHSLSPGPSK
Chain of Pim-2 (Q9P1W9 whole entry): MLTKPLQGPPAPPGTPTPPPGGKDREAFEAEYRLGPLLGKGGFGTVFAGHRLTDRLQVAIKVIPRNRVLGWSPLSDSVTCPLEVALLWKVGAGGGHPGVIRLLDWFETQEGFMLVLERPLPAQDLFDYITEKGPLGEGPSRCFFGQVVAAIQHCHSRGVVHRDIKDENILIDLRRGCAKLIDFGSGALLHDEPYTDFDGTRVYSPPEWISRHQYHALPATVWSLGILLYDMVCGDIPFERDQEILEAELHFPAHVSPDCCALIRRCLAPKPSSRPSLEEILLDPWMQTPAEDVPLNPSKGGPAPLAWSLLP

As to `Fc1cccc(F)c1-c1ccc2cnc(Nc3cnccc3OC3CNC3)n2n1` [Example 9, N-(4-(3-azetidinyloxy)-3-pyridinyl)-2-(2,6-difluorophenyl)imidazo[1,5-b]pyridazin-7-amine], the results for the IC50 in experiment [1] (setting [4]), in experiment [2] (setting [5]) and in experiment [3] (setting [6]) were 14 nM, 99 nM and 10300 nM, respectively.

Take `N[C@H]1CCCN(c2ccncc2Nc2ncc3ccc(-c4ccc(Cl)cc4Cl)nn23)C1` [Example 11, N-(4-((3S)-3-amino-1-piperidinyl)-3-pyridinyl)-2-(2,4-dichlorophenyl)imidazo[1,5-b]pyridazin-7-amine]: the values for the IC50 in experiment [1] (setting [4]), in experiment [2] (setting [5]) and in experiment [3] (setting [6]) were 2 nM, 11 nM and 5010 nM, respectively.

Turning to `C[C@@H]1CCN(c2ccncc2Nc2ncc3ccc(-c4c(F)cccc4F)nn23)C[C@H]1N` (single isomer, unassigned) [Example 100, N-(4-((trans)-3-amino-4-methylpiperidin-1-yl)pyridin-3-yl)-2-(2,6-difluorophenyl)imidazo[1,5-b]pyridazin-7-amine tris(2,2,2-trifluoroacetate)], the IC50 in experiment [1] (read-out: Pim-1 IC50 IP) is below 0.1 nM; in experiment [2] (read-out: Pim-2 IC50 IP), 0.2 nM; in experiment [3] (setting [7]), 77.5 nM.

For `C[C@@H]1CN(c2ccncc2Nc2ncc3ccc(-c4c(F)cccc4F)nn23)C[C@@H](N)[C@H]1O` [Example 41, (3R,4S,5R)-3-amino-1-(3-((2-(2,6-difluorophenyl)imidazo[1,5-b]pyridazin-7-yl)amino)-4-pyridinyl)-5-methyl-4-piperidinol], the figures for the IC50 in experiment [1] (setting [8]), in experiment [2] (setting [9]) and in experiment [3] (setting [10]) were 0.1 nM, 0.5 nM and 148 nM, respectively.

For the compound `C[C@@H]1C[C@H](N)CN(c2ccncc2Nc2ncc3ccc(-c4ccccc4F)nn23)C1` (single isomer, unassigned) [Example 46, N-(4-((cis)-3-amino-5-methylpiperidin-1-yl)pyridin-3-yl)-2-(2-fluorophenyl)imidazo[1,5-b]pyridazin-7-amine tris(2,2,2-trifluoroacetate)], the IC50 in experiment [1] (setting [8]) is below 0.1 nM; in experiment [2] (setting [9]), 0.1 nM; in experiment [3] (setting [7]), 52.1 nM.

`C[C@@H]1C[C@H](N)CN(c2ccncc2Nc2ncc3ccc(-c4ccccc4F)nn23)C1` (single isomer, unassigned) [Example 47, N-(4-((cis)-3-amino-5-methylpiperidin-1-yl)pyridin-3-yl)-2-(2-fluorophenyl)imidazo[1,5-b]pyridazin-7-amine tris(2,2,2-trifluoroacetate)]: the IC50 amounted to 7.7 nM in experiment [1] (setting [8]), 54.2 nM in experiment [2] (setting [9]) and 10200 nM in experiment [3] (setting [7]).

For `C[C@@H]1C[C@H](N)CN(c2ccncc2Nc2ncc3ccc(-c4ccccn4)nn23)C1` (relative stereo) [Example 63, N-(4-((cis)-3-amino-5-methylpiperidin-1-yl)pyridin-3-yl)-2-(pyridin-2-yl)imidazo[1,5-b]pyridazin-7-amine], the IC50 in experiment [1] (setting [8]) is 0.3 nM; in experiment [2] (setting [9]), 1.3 nM; in experiment [3] (setting [10]) it was 235 nM.

As to `N[C@H]1CCCN(c2ccncc2Nc2ncc3ccc(-c4ncccc4Cl)nn23)C1` [Example 78, (S)-N-(4-(3-aminopiperidin-1-yl)pyridin-3-yl)-2-(3-chloropyridin-2-yl)imidazo[1,5-b]pyridazin-7-amine], the results for the IC50 in experiment [1] (setting [8]), in experiment [2] (setting [9]) and in experiment [3] (setting [10]) were 0.9 nM, 2.6 nM and 620 nM, respectively.

Regarding `Nc1cc(-c2ccncc2Nc2ncc3ccc(-c4c(F)cccc4F)nn23)ccn1` [Example 30, N3′-(2-(2,6-difluorophenyl)imidazo[1,5-b]pyridazin-7-yl)-4,4′-bipyridine-2,3′-diamine], the IC50 in experiment [1] (setting [4]) turned out to be 7 nM; in experiment [2] (setting [5]), 185 nM; in experiment [3] (setting [6]) it was 21500 nM.

Turning to `C[C@@H]1C[C@H](N)CN(c2ccncc2Nc2ncc3ccc(-c4cc(C(=O)NC5CC5)ccc4F)nn23)C1` [Example 72, 3-(7-((4-((3S,5R)-3-amino-5-methyl-1-piperidinyl)-3-pyridinyl)amino)imidazo[1,5-b]pyridazin-2-yl)-N-cyclopropyl-4-fluorobenzamide], the IC50 in experiment [1] (setting [8]) came to 0.1 nM; in experiment [2] (setting [9]) it was 0.1 nM; in experiment [3] (setting [10]) it was 86.4 nM.
